Assay results taken from publication PMC3265250 (Chemotherapy Research and Practice, 2011).
Values after ≈ are worked out from the molar mass of the structure shown. Where two headings read alike, the source gives them in different places. No end group written: not given here.

Columns and labels:
S. aureus ATCC 6538P = experiment: MIC, microbroth dilution, referential strain ATCC 6538P; format: cell-based, Staphylococcus aureus
Protocol: (§1) A total number of 24 SA strains were obtained from patients with erythrodermia and 3 reference SA ones from the American Type Culture Collection: 6538P ATCC, 9144 ATCC, and 25923 ATCC (Institute of Experimental Therapy, Wroclaw, Poland). […] Polypropylene 96-well plates (Sigma-Aldrich) were incubated for 18 h at 37°C. MIC was taken as the lowest drug concentration at which a noticeable growth was inhibited. […] The experiments were performed in triplicate.

[1] = system: Superantigen negative S. aureus (10); experiment: microbe, parasite or virus in culture; details: Staphylococcus aureus; for MIC50 / MIC90 / MIC: 18 h; for MIC: read-out: MIC Range
[2] = system: Superantigen positive S. aureus (14); experiment: microbe, parasite or virus in culture; details: Staphylococcus aureus; for MIC50 / MIC90 / MIC: 18 h; for MIC: read-out: MIC Range
[3] = system: Superantigen negative S. aureus (10)
S. aureus ATCC 9144 = experiment: MIC, microbroth dilution, referential strain ATCC 9144; format: cell-based, Staphylococcus aureus
[4] = system: Superantigen positive S. aureus (14)
S. aureus ATCC 25923 = experiment: MIC, microbroth dilution, referential strain ATCC 25923; format: cell-based, Staphylococcus aureus
Protocol: as §1

[5] = Staphylococcus aureus, ATCC6538P, ATCC 6538P, microbroth dilution, MHB II, 5 × 10^5 CFU/mL, 18 h at 37°C, triplicate, read-out: MIC
[6] = superantigen negative clinical isolates (10), more than 99.9% reduction of the initial inoculums, triplicate
[7] = Staphylococcus aureus, ATCC9144, ATCC 9144, microbroth dilution, MHB II, 5 × 10^5 CFU/mL, 18 h at 37°C, triplicate, read-out: MIC
[8] = superantigen positive clinical isolates (14), more than 99.9% reduction of the initial inoculums, triplicate
[9] = Staphylococcus aureus, ATCC25923, ATCC 25923, microbroth dilution, MHB II, 5 × 10^5 CFU/mL, 18 h at 37°C, triplicate, read-out: MIC
[10] = superantigen positive clinical isolates (14), microbroth dilution, MHB II, 5 × 10^5 CFU/mL, 18 h at 37°C, triplicate
[11] = superantigen negative clinical isolates (10), microbroth dilution, MHB II, 5 × 10^5 CFU/mL, 18 h at 37°C, triplicate

Compound	MIC (S. aureus ATCC 6538P; [5]) [µg/mL]	MIC50 [1] [µg/mL]	MIC90 [1] [µg/mL]	MIC [1] [µg/mL]	MIC90 ([1]; read-out: MICs 90%) [µg/mL]	MBC ([1]; read-out: MBC 50%) [µg/mL]	MBC ([1]; read-out: MBC 90%) [µg/mL]	MIC50 [2] [µg/mL]	MIC90 [2] [µg/mL]	MIC [2] [µg/mL]	MIC90 ([2]; read-out: MICs 90%) [µg/mL]	MBC ([2]; read-out: MBC 50%) [µg/mL]	MBC ([2]; read-out: MBC 90%) [µg/mL]	MBC Range [3, 6] [µg/mL]	MIC (S. aureus ATCC 9144; [7]) [µg/mL]	MBC Range [4, 8] [µg/mL]	MIC (S. aureus ATCC 25923; [9]) [µg/mL]	MIC Range [4, 10] [µg/mL]	MBC 50% [3] [µg/mL]	MBC 90% [3] [µg/mL]	also measured
CO[C@H]1/C=C/O[C@@]2(C)Oc3c(C)c(O)c4c(O)c(c(/C=N/N5CCN(C)CC5)c(O)c4c3C2=O)NC(=O)/C(C)=C\C=C\[C@H](C)[C@H](O)[C@@H](C)[C@@H](O)[C@@H](C)[C@H](OC(C)=O)[C@@H]1C [Rifampicin, rifampicin]	0.25 (≈ 0.304 µM)	0.25 (≈ 0.304 µM)	1 (≈ 1.22 µM)	0.25 to 1 (≈ 0.304 to 1.22 µM)	1 (≈ 1.22 µM)	0.25 (≈ 0.304 µM)	1 (≈ 1.22 µM)	0.25 (≈ 0.304 µM)	1 (≈ 1.22 µM)	0.25 to 1 (≈ 0.304 to 1.22 µM)	1 (≈ 1.22 µM)	1 (≈ 1.22 µM)	2 (≈ 2.43 µM)	1 to 2	0.25 (≈ 0.304 µM)	0.5 to 2	0.25 (≈ 0.304 µM)	–	–	–	–
CC[C@H]1OC(=O)[C@H](C)[C@@H](O[C@H]2C[C@@](C)(OC)[C@@H](O)[C@H](C)O2)[C@H](C)[C@@H](O[C@@H]2O[C@H](C)C[C@H](N(C)C)[C@H]2O)[C@](C)(O)C[C@@H](C)C(=O)[C@H](C)[C@@H](O)[C@]1(C)O [Erythromycin, erythromycin]	1 (≈ 1.36 µM)	0.5 (≈ 0.681 µM)	0.5 (≈ 0.681 µM)	0.25 to 64 (≈ 0.341 to 87.2 µM)	0.5 (≈ 0.681 µM)	1 (≈ 1.36 µM)	2 (≈ 2.73 µM)	1 (≈ 1.36 µM)	256 (≈ 349 µM)	–	256 (≈ 349 µM)	8 (≈ 10.9 µM)	128 (≈ 174 µM)	–	1 (≈ 1.36 µM)	4 to 512	1 (≈ 1.36 µM)	0.25 to 512	–	–	–
GLFDIIKKIAESF-NH2 (C-terminus assumed) [Aurein 1.2, aurein 1.2]	–	–	–	–	–	–	–	–	–	–	–	–	–	64 to 128	–	64 to 128	–	32 to 128	64	128	MIC (S. aureus ATCC 6538P; ATCC 6538P, microbroth dilution, MHB II, 5 × 10^5 CFU/mL, 18 h at 37°C, triplicate): 64 µg/mL; MIC 50% [3, 11]: 64 µg/mL; MIC 90% [3, 11]: 128 µg/mL; MIC Range [3, 11]: 32 to 128 µg/mL; MIC (S. aureus ATCC 9144; ATCC 9144, microbroth dilution, MHB II, 5 × 10^5 CFU/mL, 18 h at 37°C, triplicate): 64 µg/mL; MBC 50% [4]: 64 µg/mL; MBC 90% [4]: 128 µg/mL; MIC 50% [4, 10]: 64 µg/mL; MIC 90% [4, 10]: 128 µg/mL; MIC (S. aureus ATCC 25923; ATCC 25923, microbroth dilution, MHB II, 5 × 10^5 CFU/mL, 18 h at 37°C, triplicate): 64 µg/mL
GVIDAAKKVVNVLKNLF-NH2 (C-terminus assumed) [Uperin 3.6, uperin 3.6]	–	–	–	–	–	–	–	–	–	–	–	–	–	–	–	–	–	–	128	128	MBC 50% [4]: 128 µg/mL; MBC 90% [4]: 128 µg/mL
CN[C@H](CC(C)C)C(=O)N[C@H]1C(=O)N[C@@H](CC(N)=O)C(=O)N[C@H]2C(=O)N[C@H]3C(=O)N[C@H](C(=O)N[C@H](C(=O)O)c4cc(O)cc(O)c4-c4cc3ccc4O)[C@H](O)c3ccc(c(Cl)c3)Oc3cc2cc(c3O[C@@H]2O[C@H](CO)[C@@H](O)[C@H](O)[C@H]2O[C@H]2C[C@](C)(N)[C@H](O)[C@H](C)O2)Oc2ccc(cc2Cl)[C@H]1O [Vancomycin, vancomycin]	–	1 (≈ 0.69 µM)	1 (≈ 0.69 µM)	0.5 to 1 (≈ 0.345 to 0.69 µM)	1 (≈ 0.69 µM)	1 (≈ 0.69 µM)	2 (≈ 1.38 µM)	1 (≈ 0.69 µM)	2 (≈ 1.38 µM)	0.5 to 2 (≈ 0.345 to 1.38 µM)	2 (≈ 1.38 µM)	2 (≈ 1.38 µM)	4 (≈ 2.76 µM)	–	–	–	–	–	–	–	MIC (S. aureus ATCC 6538P; Staphylococcus aureus, ATCC6538P, 18 h): 1 µg/mL (≈ 0.69 µM); MBC Range [3]: 1 to 4 µg/mL; MIC (S. aureus ATCC 9144; Staphylococcus aureus, ATCC9144, 18 h): 2 µg/mL (≈ 1.38 µM); MBC Range [4]: 1 to 4 µg/mL; MIC (S. aureus ATCC 25923; Staphylococcus aureus, ATCC25923, 18 h): 1 µg/mL (≈ 0.69 µM)
CC(=O)NC[C@H]1CN(c2ccc(N3CCOCC3)c(F)c2)C(=O)O1 [Linezolid, linezolid]	0.5 (≈ 1.48 µM)	1 (≈ 2.96 µM)	1 (≈ 2.96 µM)	0.5 to 2 (≈ 1.48 to 5.93 µM)	1 (≈ 2.96 µM)	–	–	1 (≈ 2.96 µM)	2 (≈ 5.93 µM)	0.5 to 2 (≈ 1.48 to 5.93 µM)	2 (≈ 5.93 µM)	–	–	–	1 (≈ 2.96 µM)	–	0.5 (≈ 1.48 µM)	–	–	–	–
